In patent US8952025B2, “Multifunctional radical quenchers and their uses” (Arizona Board of Regents, A Body Corporate of the State of …, priority 2010, dated 2015):
“Also recorded” adds a separate entry of the source. Values belong to the compound of their own block, whether it stands above or below them.

Columns and labels:
[1] = C11-BODIPY581/591 oxidation lipid peroxidation assay in liposomes; settings: for quenching of lipid peroxidation (retention of C11-BODIPY581/591 fluorescence): 10 mM AAPH, phospholipid liposomes, phosphate buffer, 40° C.
Method: To overcome the problem of spectral overlap using cis-parinaric acid, a fluorescence assay for lipid peroxidation using a lipophilic probe belonging to the BODIPY class of fluorescent dyes was used. C11-BODIPY^581/591 (4,4-difluoro-5(4-phenyl-1,3-butadienyl)-4-bora-3a,4a-diaza-s-indacene-3-propionic acid) fluorescence shifts from red to green upon oxidation. C11-BODIPY^581/591 (Molecular Probes, Eugene, Oreg., USA) stock solution concentrations were determined by measuring the absorption of C11-BODIPY^581/591 at 582 nm using a molar extinction coefficient of 140,000 mol^−1 cm^−1(R. P. Haugland, (1999) Handbook of Fluorescent Probes and Research Chemicals, Molecular Probes, Inc., Eugene, Oreg.). The lipid peroxidation inducer 2,2′-Azobis (2-amidino-propane dihydrochloride) (AAPH) and the antioxidant compound α-tocopherol were obtained from Sigma (St. Louis, Mo., USA). Phospholipid bilayers were prepared from 1-stearoyl-2-oleoyl-phosphatidylcholine (SOPC) and 1,2-dilinoleoyl-phosphatidylcholine (DLPC) and were purchased from Avanti® polar lipids, INC (Alabaster, Ala., USA).
Phosphotidylcholine (PC) liposomes were prepared as described before (Guey-Shuang et al. (1982) Lipids. 17, 403-413). Briefly, DLPC (25 mg) and SOPC (25 mg) were dissolved in chloroform and the solvent was removed by nitrogen evaporation (˜2 hours to give a thin film of PC in a round bottom flask. The lipid film was hydrated with 50 mL of 10 mM Tris-HCl (pH 7.4), 100 mM KCl, shaken and sonicated for 15 seconds. The liposomes obtained were filtered several times through 0.2 μM membrane filter.
C11 BODIPY^581/591 was incorporated into liposomes and oxidized by peroxyl radicals derived from the decomposition of AAPH in presence and absence of the compounds. […] Liposomes were pre-incubated for 10 min with 200 nM C11 BODIPY^581/591 to allow their incorporation into the lipid phase of the liposomes. After the addition of AAPH (10 mM) the decay of red fluorescence was followed at λ exc=570 nm, λ em=600 nm. Relative fluorescence units were normalized to 100% intensity. Results obtained were verified by repeating experiments N=3 independent experiments.

cytochrome c = test: Cytochrome c reduction assay; type: biochemical; settings: 100 μM compound, 10 μM cytochrome c, absorbance 550 nm
Method: The rate of cytochrome c (10 μM) reduction was measured by monitoring the change in absorbance at 550 nm. Briefly the reaction was initiated by addition of 100 μM of the invention compounds to a mixture containing 50 mM phosphate buffer, 0.1 mM EDTA, pH 7.8, and 10 μM cytochrome c (Sigma, St. Louis, Mo. USA). For cytochrome c reduction by superoxide, xanthine oxidase (0.01 IU/mL) (Sigma, St. Louis, Mo. USA) was used in presence of xanthine (50 μM).

CEM leukemia cells = test: C11-BODIPY581/591 oxidation in cell culture (lipid peroxidation); type: cell-based, human; settings: 2.5 or 1 μM, pretreatment 4 or 24 hours, glutathione depleted
Method: Lipid peroxidation in CEM leukemia cells was detected by utilizing the oxidant-sensitive lipophilic probe C11 BODIPY^581/591. Briefly, CEM cells (5×10^5 cell/mL) were treated with the test compounds at final concentrations of 1 and 2.5 μM, and incubated at 37° C. for 4 or 24 h in a humidified atmosphere containing 5% CO2 in air. Cells were treated with 500 nM C11 BODIPY^581/591 in phenol red-free RPMI-1640 media and incubated at 37° C. in the dark for 30 minutes. The cells were washed twice with phosphate buffered saline and oxidative stress was induced with 5 mM DEM in phenol red-free RPMI-1640 media for 90 minutes. Treated cells were collected by centrifugation at 300×g for 3 minutes and then washed twice with phosphate buffered saline. Cells were resuspended in 250 μL of phosphate buffered saline and were analyzed by FACS (FACS Calibur flow cytometer, Becton Dickinson) to monitor the change in intensity of the C11 BODIPY^581/591-green (oxidized) fluorescence signal.

[2] = test system: bovine heart mitochondrial membranes; test: Thiobarbituric acid reactive species (TBARS) assay; type: biochemical; settings: H2O2 generated using glucose oxidase
Method: Lipid peroxidation by hydrogen peroxide in bovine heart mitochondrial membranes was determined by measuring the amount of thiobarbituric acid reactive substances released. Bovine heart mitochondria (1 mg protein) prepared as described by Smith (38) were added to 800 μL of 50 mM phosphate buffer, pH 8.0, and subjected to oxidative stress by the addition of 25 mM glucose and 1 U/mL glucose oxidase from Aspergillus niger. Samples were incubated with or without test compounds at 37° C. for 30 minutes. Two hundred μL each of 1% (w/v) thiobarbituric acid and 35% (v/v) perchloric acid, as well as 0.1% (w/v) butylated hydroxytoluene (from a 2% stock solution in DMSO) were added. Samples were heated at 100° C. for 15 minutes. One-mL aliquots of each sample were taken and diluted in 2 mL of water, then extracted once with 2 mL of n-butanol. […] TBARS were determined fluorometrically from the emission spectrum (λex 515 nm; λem 550 nm) using a Varian fluorimeter. The malondialdehyde concentration was determined based on a standard curve created using serial dilutions of 10 mM 1,1,3,3-tetraethoxypropane hydrolyzed in 1% (v/v) H2SO4 at 4° C. overnight. The malondialdehyde concentration was expressed as nmoles manoldialdehyde per mg protein. Protein in aliquots of the homogenates was determined by the bicinchoninic acid method.

[3] = Stability of isolated free base on storage; type: physicochemical; settings: orange oil
Method: To a solution of 2.2 mg (4.4 μmol) acetyl ester 35 in 1 mL CH2Cl2 was added 17.5 μL (17.5 μmol) of DIBAL-H at −78° C. The reaction mixture was stirred at same temperature for 2 h than 1 mL of aqueous saturated sodium potassium tartrate was added slowly. The reaction mixture was allowed to warm to room temperature slowly add stirred for 3 h then separated. The aqueous layer was extracted with two portions of 5 mL of ethyl acetate. The combined organic layer was washed with brine, dried (Na2SO4) and concentrated under diminished pressure to give the product C as orange oil. HPLC found retain time in 21.82 min.

SMILES: Cc1nc(N(C)C)nc(CCCCCCCCCCO)c1O [Compound A, 2-N,N-dimethylamino-5-hydroxy-4-methyl-6-(10-hydroxydecyl)-pyrimidine]
quenching of lipid peroxidation (retention of C11-BODIPY581/591 fluorescence) [1]: more effective in preventing lipid peroxidation than idebenone and its reduced form (Idebenol); also recorded: much more effective than idebenone and its reduced form in preventing lipid peroxidation
protection against lipid peroxidation ([1]; compound 15 μM, AAPH, liposomes): complete protection
reduction of cytochrome c (cytochrome c): clearly reduce cytochrome c

stability of isolated compound [3]: degenerated after one day
SMILES: Cc1nc2c(c(CC[C@](C)(O)CCC[C@H](C)CCC[C@H](C)CCCC(C)C)c1O)CCN2C [Compound C, 4-((3R,7R,11R)-3-hydroxy-3,7,11,15-tetramethylhexadecyl)-1,6-dimethyl-2,3-dihydro-1H-pyrrolo[2,3-b]pyridine-5-ol]
protection against lipid peroxidation in cells (C11-BODIPY581/591 green fluorescence) (CEM leukemia cells): better protection against lipid peroxidation than α-tocopherol in a concentration and time-dependent fashion; also recorded: clearly superior to α-tocopherol in quenching lipid peroxidation in a time- and dose-dependent fashion
quenching of lipid peroxidation (retention of C11-BODIPY581/591 fluorescence) [1]: prevent lipid peroxidation in a concentration-dependent fashion with scavenging activity much higher than α-tocopherol; also recorded: prevents lipid peroxidation in a concentration-dependent fashion with scavenging activity much greater than that of α-tocopherol and compound C redox core; also recorded: much more effective than α-tocopherol in quenching lipid peroxidation
preventing TBARS formation [2]: more effective in preventing TBARS formation
